From patent publication US20260226048A1, “MULTI-CYCLIC IRAK AND FLT3 INHIBITING COMPOUNDS AND USES THEREOF” (CHILDREN'S HOSPITAL MEDICAL CENTER, priority 2023, published 2026)

How the values were obtained:
[1] = target: T1, FLT3 (Homo sapiens, UniProt P36888); assay: Reaction Biology NanoBRET target engagement assay in HEK-293 cells, FLT3; assay type: cell-based; conditions: live HEK-293 cells transfected with Kinase-NanoLuc fusion, 1 hour
T1 sequence (P36888 27-993): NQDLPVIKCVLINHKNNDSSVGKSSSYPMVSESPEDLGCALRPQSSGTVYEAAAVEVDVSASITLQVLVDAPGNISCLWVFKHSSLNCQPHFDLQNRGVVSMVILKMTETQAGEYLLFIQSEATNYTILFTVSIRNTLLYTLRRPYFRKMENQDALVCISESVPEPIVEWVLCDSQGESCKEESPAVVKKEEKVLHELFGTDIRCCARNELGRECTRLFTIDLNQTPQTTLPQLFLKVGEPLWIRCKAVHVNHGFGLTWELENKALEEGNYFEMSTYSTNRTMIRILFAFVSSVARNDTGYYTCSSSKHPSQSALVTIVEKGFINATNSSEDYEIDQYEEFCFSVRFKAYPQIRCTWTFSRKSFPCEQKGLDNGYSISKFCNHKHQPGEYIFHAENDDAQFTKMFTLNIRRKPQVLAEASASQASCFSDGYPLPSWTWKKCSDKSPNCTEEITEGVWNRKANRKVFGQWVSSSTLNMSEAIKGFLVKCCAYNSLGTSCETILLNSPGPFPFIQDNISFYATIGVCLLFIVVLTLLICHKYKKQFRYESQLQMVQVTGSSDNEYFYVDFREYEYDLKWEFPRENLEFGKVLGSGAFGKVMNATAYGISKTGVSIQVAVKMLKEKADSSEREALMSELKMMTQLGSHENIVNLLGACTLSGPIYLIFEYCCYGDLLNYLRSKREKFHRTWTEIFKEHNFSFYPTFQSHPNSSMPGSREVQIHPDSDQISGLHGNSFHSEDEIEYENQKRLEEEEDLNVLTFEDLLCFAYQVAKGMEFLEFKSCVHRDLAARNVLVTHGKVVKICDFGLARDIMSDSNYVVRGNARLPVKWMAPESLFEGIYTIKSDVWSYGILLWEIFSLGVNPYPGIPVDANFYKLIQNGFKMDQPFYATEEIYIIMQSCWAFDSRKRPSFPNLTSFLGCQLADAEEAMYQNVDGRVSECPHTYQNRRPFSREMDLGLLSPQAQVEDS
Excerpt: The NanoBRET assay measures kinase engagement in real time in the context of the intact cell. Unlike the previously described biochemical kinase assay methodology in Example 33, the NanoBRET assay measures the binding and activity characteristics under equilibrium conditions using full-length kinases in the presence of cellular concentrations of ATP in live, uncompromised cells. As such, the assay provides a more relevant assessment of kinase potency and selectivity that would be expected to be observed in the native cellular environment, where potency is often considerably lower than that observed in the isolated biochemical assays (Vasta, J. D. et al., (2018) Cell Chem. Biol. 25, 206-214). The assay uses a Kinase-NanoLuc® fusion vector expressing a kinase protein to which a luciferase tag has been added, a cell-permeant fluorescent NanoBRET™ tracer, a NanoLuc® substrate, and an extracellular NanoLuc® inhibitor. Upon expression of the luciferase-tagged kinase, cells will produce a strong BRET signal only in the presence of the NanoBRET™ tracer. The extracellular NanoLuc® inhibitor ensures that the BRET signal observed emanates only from live cells. Because the BRET signal has tight distance constraints, addition of the test compound will decrease the BRET signal if the compound competes with the NanoBRET™ tracer for binding to the kinase domain. Under the appropriate tracer conditions established by the manufacturer, quantitative intracellular affinity and relative potency can then be determined using Mass Action model equations.
HEK-293 cells were purchased from ATCC. FuGENEHD Transfection Reagent, Kinase-NanoLucfusion plasmids, Transfection Carrier DNA, NanoBRETTracers and dilution buffer, NanoBRETNano-Glo Substrate, Extracellular NanoLucInhibitor were obtained from Promega.
Assays were conducted following Promega assay protocol with some modifications. HEK-293 Cells were transiently transfected with Kinase-NanoLucFusion Vector DNA by FuGENEHD Transfection Reagent. Testing compounds were delivered into 384 well assay plate by Echo 550 (LabcyteInc, Sunnyvale, CA). Transfected cells were harvested and mixed with NanoBRETTracer Reagent and dispensed into 384 well plates and incubated at 37° C. in 5% C02 cell culture incubator for 1 hour. The NanoBRETNano-Glo Substrate plus Extracellular NanoLucInhibitor Solution were added into the wells of the assay plate and incubated for 2-3 minutes at room temperature. The donor emission wavelength (460 nm) and acceptor emission wavelength (600 nm) were measured in the EnVisionplate reader. The BRET Ratios were calculated. BRET Ratio=[(Acceptor sample÷Donor sample)−(Acceptor no-tracer control÷Donor no-tracer control)]. The IC50 values of compounds were calculated with Prism GraphPad program.
• 1). Cultivate HEK-293 cells (70-80% confluence) appropriately prior to assay. Trypsinize and collect HEK-293 cells. • 2). Prepare lipid: DNA complexes as follows: • a. Prepare a 10 μg/ml solution of DNA in Opti-MEM without serum that consists of the following ratios of carrier DNA and DNA encoding NanoLuc® fusion. 9.0 μg/mL of Transfection Carrier DNA, 1.0 μg/mL of NanoLuc fusion vector DNA and 1 mL of Opti-MEM without phenol red. Mix thoroughly. • b. Add 30 μl of FuGENE HD Transfection Reagent into each milliliter of DNA mixture to form lipid: DNA complex. • c. Mix by inversion 10 times. • d. Incubate at ambient temperature for 20 minutes to allow complexes to form. • 3). In a sterile, conical tube, mix 1 part of lipid:DNA complex with 20 parts of HEK-293 cells in suspension. Mix gently by inversion 5 times. • 4). Dispense cells+lipid:DNA complex into a sterile tissue culture dish and incubate for 22-24 hours.
Each test compound is delivered from the compound source plate to the wells of 384-well white NBS plate by Echo 550.
3. Preparation of Cells with NanoBRET™ Tracer Reagent • 1). […]

[2] = tested on: MOLM14 F691L cells; assay: MOLM14 F691L cell viability assay (Cell Titer Glo); assay type: cell-based; conditions: Homo sapiens, MOLM-14; cell viability, Cell Titer Glo, 48 hours; read-out: MOLM14 F691L IC50
Procedure, shortened: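 Luminescent ATP read-out (CellTiter-Glo, 15 min room temperature) taken 48 h after compound addition. Cells were MOLM14 carrying FLT3 D835Y or F691L mutations, plated at 1000 cells per well.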

In the case of CC(O)(c1ccc2ncc(-c3ccnc(N[C@@H]4CCCNC4)n3)n2c1)C(F)(F)F (single isomer, unassigned) [Compound 22a], the IC50 [1] is reported as 38 nM.

CC(O)(c1ccc2ncc(-c3ccnc(N[C@@H]4CCCNC4)n3)n2c1)C(F)(F)F (single isomer, unassigned) [Compound 23a] gave an IC50 [1] of 3 nM.

In the case of CC(O)(c1ccc2ncc(-c3ccnc(N[C@H]4CNCC[C@@H]4F)n3)n2c1)C(F)(F)F (single isomer, unassigned) [Compound 25a], the IC50 [1] is reported as 40 nM.

CC(O)(c1ccc2ncc(-c3cncc(N[C@@H]4CCCNC4)n3)n2c1)C(F)(F)F (single isomer, unassigned) [Compound 28a] showed an IC50 [1] of 2960 nM.

Work on CC(O)(c1ccc2ncc(-c3cncc(N[C@H]4CNCC[C@@H]4F)n3)n2c1)C(F)(F)F (single isomer, unassigned) [Compound 31a] yielded an IC50 [1] of 1810 nM.

Molecule COc1cc2ncc(-c3nc(N[C@H]4CNCC[C@@H]4F)ncc3F)n2nc1C1CC1 [Compound 1a, 4-(6-cyclopropyl-7-methoxyimidazo[1,2-b]pyridazin-3-yl)-5-fluoro-N-((3S,4S)-4-fluoropiperidin-3-yl)pyrimidin-2-amine] has an IC50 [1] of 1 nM and an IC50 [2] of 6 nM.

Work on FC(F)COc1cc2ncc(-c3ccnc(N[C@H]4CNCC[C@@H]4F)n3)n2nc1C1CC1 [Compound 4a, 4-(6-cyclopropyl-7-(2,2-difluoroethoxy)imidazo[1,2-b]pyridazin-3-yl)-N-((3 S,4S)-4-fluoropiperidin-3-yl)pyrimidin-2-amine] yielded an IC50 [1] of 4 nM and an IC50 [2] of 36 nM.

Molecule F[C@H]1CCNC[C@@H]1Nc1nccc(-c2cnc3cc(OC4CC4)c(C4CC4)nn23)n1 [Compound 12a, 4-(7-cyclopropoxy-6-cyclopropylimidazo[1,2-b]pyridazin-3-yl)-N-((3S,4S)-4-fluoropiperidin-3-yl)pyrimidin-2-amine] has an IC50 [1] of less than 0.5 nM and an IC50 [2] of 101 nM.

Work on COc1cc2ncc(-c3nc(N[C@H]4CNCC[C@@H]4F)ncc3F)n2nc1C(C)(C)O [Compound 45a, 2-(3-(5-fluoro-2-(((3S,4S)-4-fluoropiperidin-3-yl)amino)pyrimidin-4-yl)-7-methoxyimidazo[1,2-b]pyridazin-6-yl)propan-2-ol] yielded an IC50 [1] of 44 nM and an IC50 [2] of 90 nM.

CC(C)(O)c1ccc2ncc(-c3nc(N[C@H]4CNCC[C@@H]4F)ncc3F)n2c1 [Compound 46a, 2-(3-(5-fluoro-2-(((3S,4S)-4-fluoropiperidin-3-yl)amino)pyrimidin-4-yl)imidazo[1,2-a]pyridin-6-yl)propan-2-ol] gave an IC50 [1] of 102 nM and an IC50 [2] of 252 nM.

Molecule CC(C)(O)c1ccc2ncc(-c3nc(N[C@@H]4CCCNC4)ncc3F)n2c1 [Compound 48a, (R)-2-(3-(5-fluoro-2-(piperidin-3-ylamino)pyrimidin-4-yl)imidazo[1,2-a]pyridin-6-yl)propan-2-ol] has an IC50 [1] of 141 nM.

In the case of COc1cc2ncc(-c3nc(N[C@H]4CNCC[C@@H]4F)ncc3F)n2nc1C1CC(F)(F)C1 [Compound 49a, 4-(6-(3,3-difluorocyclobutyl)-7-methoxyimidazo[1,2-b]pyridazin-3-yl)-5-fluoro-N-((3S,4S)-4-fluoropiperidin-3-yl)pyrimidin-2-amine], the IC50 [1] is reported as less than 0.5 nM.

COc1cc2ncc(-c3nc(N[C@@H]4CCCNC4)ncc3F)n2nc1C1CC2(CCC2)C1 [Compound 59a, (R)-5-fluoro-4-(7-methoxy-6-(spiro[3.3]heptan-2-yl)imidazo[1,2-b]pyridazin-3-yl)-N-(piperidin-3-yl)pyrimidin-2-amine] showed an IC50 [2] of 45 nM.

COc1cc2ncc(-c3nc(N[C@H]4CNCC[C@@H]4F)ncc3F)n2nc1C1CC2(CCC2)C1 [Compound 60a, 5-fluoro-N-((3S,4S)-4-fluoropiperidin-3-yl)-4-(7-methoxy-6-(spiro[3.3]heptan-2-yl)imidazo[1,2-b]pyridazin-3-yl)pyrimidin-2-amine] showed an IC50 [2] of 90 nM.

For COc1cc2ncc(-c3ccnc(N[C@H]4CNCC[C@@H]4F)n3)n2nc1C1CCC1 [Compound 79a, 4-(6-cyclobutyl-7-methoxyimidazo[1,2-b]pyridazin-3-yl)-N-((3S,4S)-4-fluoropiperidin-3-yl)pyrimidin-2-amine], the IC50 [1] was less than 0.5 nM and the IC50 [2] was 101 nM.

COc1cc2ncc(-c3nc(N[C@H]4CNCC[C@@H]4F)ncc3F)n2nc1C1COC1 [Compound 92a, 5-fluoro-N-((3S,4S)-4-fluoropiperidin-3-yl)-4-(7-methoxy-6-(oxetan-3-yl)imidazo[1,2-b]pyridazin-3-yl)pyrimidin-2-amine] gave an IC50 [1] of 4 nM and an IC50 [2] of 40 nM.

In the case of CC(C)(O)c1cn2c(-c3nc(N[C@H]4CNCC[C@@H]4F)ncc3F)cnc2cn1 [Compound 100a, 2-(3-(5-fluoro-2-(((3S,4S)-4-fluoropiperidin-3-yl)amino)pyrimidin-4-yl)imidazo[1,2-a]pyrazin-6-yl)propan-2-ol], the IC50 [1] is reported as 4250 nM and the IC50 [2] is reported as 603 nM.

COc1cc2ncc(-c3nc(N[C@H]4CNC[C@@H]4F)ncc3F)n2nc1N1CCCS1(=O)=O [Compound 111a, 2-(3-(5-fluoro-2-(((3S,4S)-4-fluoropyrrolidin-3-yl)amino)pyrimidin-4-yl)-7-methoxyimidazo[1,2-b]pyridazin-6-yl)isothiazolidine 1,1-dioxide] gave an IC50 [1] of 77 nM and an IC50 [2] of 113 nM.

COc1cc2ncc(-c3nc(N[C@H]4CNCC[C@@H]4F)ncc3F)n2nc1N1CCCS1(=O)=O [Compound 112a, 2-(3-(5-fluoro-2-(((3S,4S)-4-fluoropiperidin-3-yl)amino)pyrimidin-4-yl)-7-methoxyimidazo[1,2-b]pyridazin-6-yl)isothiazolidine 1,1-dioxide] was tested, and the IC50 [1] was less than 0.5 nM and the IC50 [2] was 23 nM.
